Two molecules from article PMC9279640 (Acta Pharmaceutica Sinica. B, 2021) can be followed below.

For orientation: Kd means the concentration at which binding is half-saturated.

What all share (assay type): binding
In one experiment the target is T1, rat TREM2 (rTREM2) (Rattus norvegicus, UniProt A0A6G8MV71).
T1 sequence (A0A6G8MV71 19-229): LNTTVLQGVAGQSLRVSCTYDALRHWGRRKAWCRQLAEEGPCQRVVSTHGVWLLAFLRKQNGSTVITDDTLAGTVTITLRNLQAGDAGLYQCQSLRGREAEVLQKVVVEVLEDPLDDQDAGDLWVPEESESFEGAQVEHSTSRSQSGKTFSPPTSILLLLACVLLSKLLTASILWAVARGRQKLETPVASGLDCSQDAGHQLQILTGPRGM
The experiment in a line: microscale thermophoresis with labelled recombinant TREM2.

The target in experiment [1] is T2, mouse TREM2 (mTREM2) (Mus musculus, UniProt Q99NH8).
T2 sequence (Q99NH8 19-227): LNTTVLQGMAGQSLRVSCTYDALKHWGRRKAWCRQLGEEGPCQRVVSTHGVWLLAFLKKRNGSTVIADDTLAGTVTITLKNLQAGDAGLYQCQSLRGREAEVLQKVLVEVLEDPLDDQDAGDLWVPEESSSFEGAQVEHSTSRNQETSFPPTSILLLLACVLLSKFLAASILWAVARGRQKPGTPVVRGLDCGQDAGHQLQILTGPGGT
The description is as above.

The next experiment concerns the target APOE (apolipoprotein E) (Homo sapiens, UniProt P02649). Nature of the experiment: microscale thermophoresis with labelled recombinant APOE. A general note: Microscale thermophoresis detects binding through changes in fluorescence in a small temperature gradient.
The target of experiment [2] is T3, human TREM2 (hTREM2) (Homo sapiens, UniProt Q9NZC2).
T3 sequence (Q9NZC2 19-230): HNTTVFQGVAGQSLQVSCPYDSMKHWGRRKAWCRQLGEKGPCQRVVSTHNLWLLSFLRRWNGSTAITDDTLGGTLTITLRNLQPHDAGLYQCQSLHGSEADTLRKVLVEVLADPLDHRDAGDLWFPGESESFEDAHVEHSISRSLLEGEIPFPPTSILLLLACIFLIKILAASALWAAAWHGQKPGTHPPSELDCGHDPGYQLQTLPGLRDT
Nature of the experiment: microscale thermophoresis with labelled recombinant TREM2.

The target of another experiment is T4, TREM2 D104A (hTREM2) (Homo sapiens, UniProt Q9NZC2, D104A).
T4 sequence (Q9NZC2 19-174 D104A limits assumed): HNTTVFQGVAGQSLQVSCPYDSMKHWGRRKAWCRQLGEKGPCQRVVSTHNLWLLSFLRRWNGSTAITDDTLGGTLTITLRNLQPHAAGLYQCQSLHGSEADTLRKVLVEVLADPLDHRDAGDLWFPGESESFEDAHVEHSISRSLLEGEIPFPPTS
The experiment in a line: microscale thermophoresis with labelled TREM2 D104A.

The target in experiment [3] is T3, human TREM2 (hTREM2). The experiment in a line: microscale thermophoresis.
The target in experiment [4] is T2, mouse TREM2 (mTREM2). The experiment in a line: microscale thermophoresis.

Chain of APOE (apolipoprotein E) (P02649 19-317): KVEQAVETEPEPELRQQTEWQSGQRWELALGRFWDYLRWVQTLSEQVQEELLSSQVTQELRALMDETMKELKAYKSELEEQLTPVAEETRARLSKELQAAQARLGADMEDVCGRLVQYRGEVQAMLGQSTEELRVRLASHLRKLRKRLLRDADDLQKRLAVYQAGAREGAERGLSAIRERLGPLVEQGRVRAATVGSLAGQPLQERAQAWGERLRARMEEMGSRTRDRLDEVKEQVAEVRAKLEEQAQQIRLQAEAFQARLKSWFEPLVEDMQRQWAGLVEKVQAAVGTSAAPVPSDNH

As for `CCCCCCCCc1ccc(CC[C@](N)(CO)COP(=O)(O)O)cc1` [FTY720P], the Kd on rat TREM2 (rTREM2) came out at 7.17 ± 2.21 µM; on mouse TREM2 (mTREM2) [1] it was 72.6 ± 21 µM; on APOE (apolipoprotein E), 15.9 ± 7.41 µM; on human TREM2 (hTREM2) [2] it was 6.75 ± 1.8 µM.

On to `CCCCCCCCCCCCC/C=C/[C@@H](O)[C@@H](N)COP(=O)(O)O` [S1P], for which the Kd on TREM2 D104A (hTREM2) is 593 ± 97.6 µM; on human TREM2 (hTREM2) [3], 62.6 ± 11.9 µM; at rat TREM2 (rTREM2), 56.8 ± 14 µM; on mouse TREM2 (mTREM2) [4], 64.6 ± 16.6 µM; at APOE (apolipoprotein E), 6.64 ± 1.68 µM.
